ChEMBL document CHEMBL4813911 (J Med Chem, 2020)

Experiments:
[1] = target: T1, Lysine-specific histone demethylase 2 (Homo sapiens, UniProt Q8NB78); assay: Inhibition of LSD2 (unknown origin) using Lys4-dimethylated H3 (1-20) peptide as substrate incubated for 30 mins by peroxidase-coupled assay
T1 sequence (Q8NB78 whole entry): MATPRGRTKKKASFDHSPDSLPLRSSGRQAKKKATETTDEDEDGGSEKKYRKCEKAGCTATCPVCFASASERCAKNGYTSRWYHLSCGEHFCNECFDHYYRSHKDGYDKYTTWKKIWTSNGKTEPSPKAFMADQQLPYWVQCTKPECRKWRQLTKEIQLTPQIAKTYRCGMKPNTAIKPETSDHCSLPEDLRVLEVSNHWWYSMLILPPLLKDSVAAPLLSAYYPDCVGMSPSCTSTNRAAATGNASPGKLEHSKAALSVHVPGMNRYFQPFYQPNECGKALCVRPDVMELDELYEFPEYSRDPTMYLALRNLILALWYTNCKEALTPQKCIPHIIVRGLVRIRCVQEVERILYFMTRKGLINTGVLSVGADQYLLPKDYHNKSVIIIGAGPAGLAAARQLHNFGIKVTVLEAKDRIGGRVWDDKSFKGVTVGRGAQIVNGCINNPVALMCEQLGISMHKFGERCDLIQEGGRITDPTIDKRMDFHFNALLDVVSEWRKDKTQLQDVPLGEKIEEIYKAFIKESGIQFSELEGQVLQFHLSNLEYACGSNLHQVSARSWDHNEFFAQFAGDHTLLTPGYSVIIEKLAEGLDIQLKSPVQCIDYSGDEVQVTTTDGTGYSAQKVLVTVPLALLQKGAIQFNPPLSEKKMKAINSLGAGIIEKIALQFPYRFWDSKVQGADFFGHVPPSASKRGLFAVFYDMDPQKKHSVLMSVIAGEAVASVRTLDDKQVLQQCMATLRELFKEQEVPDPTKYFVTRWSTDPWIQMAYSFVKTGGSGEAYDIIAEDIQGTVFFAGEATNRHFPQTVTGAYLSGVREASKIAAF

[2] = target: T2, Amine oxidase [flavin-containing] A (Homo sapiens, UniProt P21397); assay: Inhibition of human MAO-A expressed in baculovirus infected BTI insect cells using tyramine as substrate incubated for 30 mins by peroxidase-coupled assay
T2 sequence (P21397 whole entry): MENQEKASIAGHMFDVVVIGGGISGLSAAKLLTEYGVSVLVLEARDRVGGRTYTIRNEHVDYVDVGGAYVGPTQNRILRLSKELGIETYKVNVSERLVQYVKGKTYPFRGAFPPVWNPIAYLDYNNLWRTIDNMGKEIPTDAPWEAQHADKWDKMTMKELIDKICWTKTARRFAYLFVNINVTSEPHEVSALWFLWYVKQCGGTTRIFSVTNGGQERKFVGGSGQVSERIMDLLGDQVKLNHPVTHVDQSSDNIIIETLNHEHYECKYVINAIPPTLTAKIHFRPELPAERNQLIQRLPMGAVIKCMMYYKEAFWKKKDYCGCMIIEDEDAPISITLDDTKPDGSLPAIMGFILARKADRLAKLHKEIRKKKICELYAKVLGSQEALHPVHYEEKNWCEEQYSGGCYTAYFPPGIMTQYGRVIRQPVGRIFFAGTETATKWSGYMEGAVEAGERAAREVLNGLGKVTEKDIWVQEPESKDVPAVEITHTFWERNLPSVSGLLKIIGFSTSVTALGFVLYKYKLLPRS

[3] = target: T3, Amine oxidase [flavin-containing] B (Homo sapiens, UniProt P27338); assay: biochemical
T3 sequence (P27338 whole entry): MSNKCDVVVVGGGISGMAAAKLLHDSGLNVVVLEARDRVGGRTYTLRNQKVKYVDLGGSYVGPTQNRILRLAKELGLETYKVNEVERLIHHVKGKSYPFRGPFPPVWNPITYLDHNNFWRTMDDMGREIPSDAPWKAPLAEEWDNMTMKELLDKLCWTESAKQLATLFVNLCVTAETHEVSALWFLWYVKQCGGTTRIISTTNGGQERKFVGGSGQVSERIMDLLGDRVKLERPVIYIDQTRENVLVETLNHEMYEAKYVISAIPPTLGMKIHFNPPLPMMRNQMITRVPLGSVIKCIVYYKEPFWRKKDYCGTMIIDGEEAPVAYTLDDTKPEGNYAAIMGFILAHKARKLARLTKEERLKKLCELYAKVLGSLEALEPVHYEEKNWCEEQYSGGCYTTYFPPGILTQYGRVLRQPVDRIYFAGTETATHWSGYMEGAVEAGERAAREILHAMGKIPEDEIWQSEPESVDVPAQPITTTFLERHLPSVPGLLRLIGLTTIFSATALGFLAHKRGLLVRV

HCT-116 = assay: Antiproliferative activity against human HCT116 cells after 48 hrs by MTT assay; type: functional
KYSE-150 cell line = assay: Antiproliferative activity against human KYSE150 cells after 48 hrs by MTT assay; type: functional
SH-SY5Y = assay: Antiproliferative activity against human SH-SY5Y cells after 48 hrs by MTT assay; type: functional
HeLa = assay: Antiproliferative activity against human HeLa cells after 48 hrs by MTT assay; type: functional
PC-3 = assay: Antiproliferative activity against human PC-3 cells after 48 hrs by MTT assay; type: functional
[4] = target: T3, Amine oxidase [flavin-containing] B; assay: biochemical; remark: listed apart in the source
[5] = target: T2, Amine oxidase [flavin-containing] A; assay: Inhibition of human MAO-A expressed in expressed in baculovirus infected BTI insect cells using tyramine as substrate by peroxidase-coupled method
[6] = target: T2, Amine oxidase [flavin-containing] A; assay: biochemical
[7] = target: T2, Amine oxidase [flavin-containing] A
[8] = target: T3, Amine oxidase [flavin-containing] B; assay: Inhibition of MAO-B (unknown origin) using benzylamine as substrate preincubated for 20 mins followed by substrate addition and measured after 60 mins
MV4-11 [9] = assay: Antiproliferative activity against human MV4-11 cells incubated for 6 days by MTS assay; type: functional, cell-based; conditions: MV4-11, 144 h
[10] = target: T2, Amine oxidase [flavin-containing] A; assay: Inhibition of MAO-A (unknown origin) preincubated for 20 mins using 5-hydroxytryptamine as substrate followed by substrate addition and measured after 60 mins
LSD1/CoREST complex = LSD1/CoREST complex (Homo sapiens, UniProt O60341); assay: Inhibition of LSD1/FLAG-tagged CoREST (unknown origin) expressed in HEK293F cells using diMeK4H3(1 to 21) as substrate preincubated for 5 mins followed by substrate addition measured for 5 mins by horseradish peroxidase-coupled assay
[11] = Inhibition of HDAC1/FLAG-tagged CoREST (unknown origin) expressed in HEK293F cells using p53 (379 to 382 residues) (RHKK(Ac) as substrate incubated for 30 mins by fluorescence method; parameters: species or system Homo sapiens
[12] = Antiproliferative activity against human SCCIC1 cells after 72 hrs by [3H] thymidine incorporation assay; type: functional, cell-based
[13] = Antiproliferative activity against human MET-1 cells after 72 hrs by [3H] thymidine incorporation assay; type: functional, cell-based
[14] = target: T4, Lysine-specific histone demethylase 1A (Homo sapiens, UniProt O60341); assay: Inhibition of human LSD1 expressed in Escherichia coli BL21 (DE3) cells using (ARTK(diMe)QTARKSTGGKAPRKQLA peptide as substrate incubated for 30 mins by HRP reagent based fluorescence method
MAO-B = target: T5, MAO-B (Homo sapiens, UniProt P27338); assay: Inhibition of human recombinant MAO-B expressed in Pichia pastoris using benzylamine as substrate at 100 uM by horseradish peroxidase coupled-assay relative to control; conditions: probe benzylamine
T5 sequence (P27338 whole entry): T3 sequence (P27338 whole entry)

MAO-A = target: T6, MAO-A (Homo sapiens, UniProt P21397); assay: Inhibition of human recombinant MAO-A expressed in Pichia pastoris using kynuramine as substrate at 100 uM by horseradish peroxidase coupled-assay relative to control; conditions: probe kynuramine
T6 sequence (P21397 whole entry): T2 sequence (P21397 whole entry)

NB-4 = assay: Antiproliferative activity against human NB4 cells incubated for 48 hrs by CellTiter-Fluor cell viability assay; type: functional, cell-based; conditions: NB-4, 48 h
MV4-11 [15] = assay: Antiproliferative activity against human MV4-11 cells incubated for 48 hrs by CellTiter-Fluor cell viability assay; type: functional, cell-based; conditions: MV4-11, 48 h
[16] = target: T3, Amine oxidase [flavin-containing] B; assay: biochemical; remark: listed apart in the source
[17] = target: T3, Amine oxidase [flavin-containing] B; assay: Inhibition of MAO-B (unknown origin) measured after 60 mins by luciferin-based luminescence assay
[18] = target: T4, Lysine-specific histone demethylase 1A
[19] = target: T4, Lysine-specific histone demethylase 1A; remark: listed apart in the source
[20] = target: T4, Lysine-specific histone demethylase 1A; remark: listed apart in the source
[21] = target: T2, Amine oxidase [flavin-containing] A; assay: Inhibition of human MAO-A expressed in baculovirus infected BTI insect cells by fluorescence method
[22] = target: T3, Amine oxidase [flavin-containing] B; assay: Inhibition of human MAO-B expressed in baculovirus infected BTI insect cells by fluorescence method
U-937 = assay: Antiproliferative activity against human U-937 cells incubated for 72 hrs by CellTiter-glo assay; type: functional, cell-based; conditions: U-937, 72 h
OCI-AML-3 = assay: Antiproliferative activity against human OCI-AML3 cells incubated for 72 hrs by CellTiter-glo assay; type: functional, cell-based; conditions: OCI-AML-3, 72 h
THP-1 = assay: Antiproliferative activity against human THP-1 cells incubated for 72 hrs by CellTiter-glo assay; type: functional, cell-based; conditions: THP-1, 72 h
[23] = target: T4, Lysine-specific histone demethylase 1A; assay: Inhibition of His-tagged full length human LSD1 expressed in Escherichia coli BL21 RIPL Codon Plus (DE3) using ARTK(me2)QTARKSTGGKAPRKQLA as substrate preincubated for 10 mins followed by substrate addition by amplex ultra red and HRP reagent based fluorescence method
HL-60 = assay: Antiproliferative activity against human HL-60 cells incubated for 72 hrs by CellTiter-glo assay; type: functional, cell-based; conditions: HL-60, 72 h
Kasumi 1 = assay: Antiproliferative activity against human KASUMI-1 cells incubated for 72 hrs by CellTiter-glo assay; type: functional, cell-based; conditions: Kasumi 1, 72 h
MV4-11 [24] = assay: Antiproliferative activity against human MV4-11 cells incubated for 72 hrs by CellTiter-glo assay; type: functional, cell-based; conditions: MV4-11, 72 h

NC1CC1c1cc(F)cc(F)c1OCc1ccccc1 (centres undefined)
Ki [1]: > 250 µM
Ki [2]: 71 µM
Ki [3]: 33 µM

NC1CC1c1cccc(OCC[C@H](NC(=O)c2ccccc2)C(=O)NCc2ccccc2)c1 (some centres undefined)
GI50 (HCT-116): 6 µM
GI50 (KYSE-150 cell line): 6 µM
GI50 (SH-SY5Y): 6 µM
GI50 (HeLa): 6 µM
GI50 (PC-3): 6 µM

NC1CC1c1c(F)c(F)c(F)c(F)c1F (centres undefined)
Ki [4]: 8.3 µM
Ki [5]: 270 µM

NC1CC1c1cccc(F)c1OCc1ccccc1 (centres undefined)
Ki [4]: 42 µM
Ki [5]: 64 µM

O=C(N[C@@H](CCCCNC1CC1c1ccccc1)C(=O)NCc1ccccc1)c1ccccc1 (some centres undefined)
GI50 (SH-SY5Y): 17 µM
GI50 (HeLa): 35 µM

O=C(N[C@@H](CCCCNC1CC1c1ccccc1)C(=O)NCc1cccc(C(F)(F)F)c1)c1ccc(-c2ccccc2)cc1 (some centres undefined)
GI50 (SH-SY5Y): 2.4 µM
GI50 (HeLa): 4.1 µM

O=C(N[C@@H](CCCCNC1CC1c1ccccc1)C(=O)NCc1ccccc1)c1ccc(-c2ccccc2)cc1 (some centres undefined)
IC50 [6]: 87 µM
GI50 (SH-SY5Y): > 3.3 µM
GI50 (HeLa): 10 µM

CN1CCN(C(=O)CN[C@@H]2C[C@H]2c2ccc(OCc3ccccc3)cc2)CC1
IC50 [7]: 0.51 µM

CCN(CC)S(=O)(=O)c1ccc([C@H]2C[C@@H]2NCc2ccccc2)cc1
IC50 [8]: 0.702 µM
IC50 (MV4-11 [9]): 15.4 µM
IC50 [10]: 0.525 µM

Nc1ccccc1NC(=O)c1ccc(CCCC(=O)Nc2ccc(C3CC3N)cc2)cc1 (centres undefined)
IC50 (LSD1/CoREST complex): 1.8 µM
IC50 [11]: 0.23 µM
IC50 [12]: 0.041 µM
IC50 [13]: 0.006 µM

CCN(CC)S(=O)(=O)c1ccc([C@H]2C[C@@H]2N)cc1
IC50 [8]: 0.898 µM
IC50 (MV4-11 [9]): > 30 µM
IC50 [10]: 0.806 µM
IC50 [14]: 0.123 µM

NC1CC1c1ccc(NC(=O)c2ccc(NC(=O)OCc3ccccc3)cc2)cc1 (centres undefined)
inhibition at 100 µM (MAO-B): 8%
inhibition at 100 µM (MAO-A): 37%
IC50 (NB-4): 0.6 µM
IC50 (MV4-11 [15]): 0.4 µM

NC1CC1c1ccc(OCC[C@H](NC(=O)c2ccccc2)C(=O)NCc2ccccc2)cc1 (some centres undefined)
GI50 (HCT-116): 6 µM
GI50 (KYSE-150 cell line): 6 µM
IC50 [6]: 290 µM
GI50 (SH-SY5Y): 6 µM
GI50 (HeLa): 6 µM
GI50 (PC-3): 6 µM
IC50 [16]: > 1000 µM

CN1CCN(C(=O)CN[C@@H]2C[C@H]2c2ccc(F)nc2)CC1
IC50 [17]: 10.8 µM
IC50 [7]: 12.9 µM
IC50 [18]: 0.031 µM
IC50 [19]: 0.003 µM
IC50 [20]: 0.007 µM

Fc1ccccc1CNC1CC12CCc1ccccc12 (centres undefined)
IC50 [21]: 2.5 µM
IC50 [22]: 32 µM

COc1ccc(CNC2CC23CCc2ccccc23)c(Cl)c1OC (centres undefined)
IC50 [21]: 5 µM
IC50 [22]: 7 µM

CCN(CC)S(=O)(=O)c1ccc([C@H]2C[C@@H]2NC(=O)OC(C)(C)C)cc1
IC50 [8]: 0.655 µM
IC50 (MV4-11 [9]): 4.9 µM
IC50 [10]: 0.708 µM
IC50 [14]: > 1 µM

COc1ccccc1CNC1CC12CCc1ccccc12 (centres undefined)
IC50 [21]: 5.9 µM
IC50 [22]: 12 µM

CN1CCN(C(=O)CNC2CC2c2cc(F)cc(F)c2OCc2ccccc2)CC1 (centres undefined)
Ki [1]: > 250 µM
Ki [2]: > 250 µM
Ki [3]: > 250 µM

COc1ccc(Br)cc1CNC1CC12CCc1ccccc12 (centres undefined)
IC50 [21]: 3.7 µM
IC50 [22]: 1.2 µM

N[C@@H]1C[C@H]1c1ccc(C(=O)NCc2ccccc2)cc1
IC50 (U-937): 1.6 µM
IC50 (OCI-AML-3): 1.8 µM
IC50 (THP-1): 0.1 µM
IC50 [23]: 0.3 µM
IC50 (HL-60): 1.7 µM
IC50 (Kasumi 1): 0.03 µM
IC50 (MV4-11 [24]): 0.18 µM
